Source: US9957264B2 (Merck Sharp & Dohme Corp., priority 2013, dated 2018)
pIC50: −log10 of the molar value.

How the values were obtained:
[1] = biological target: JAK1 (recombinant purified GST-tagged catalytic domain) (Homo sapiens (Human), UniProt P23458); assay: Jak Biochemical HTRF Assay (JAK1); conditions: [ATP] 31.8 μM
Method in brief: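 Kinase reaction with biotinylated peptide substrate was started by ATP addition and run 120 min at room temperature, then quenched with EDTA stop buffer containing streptavidin-Dylight 650 and Eu-pY20 antibody. HTRF read 60 min later (665/615 nm ratio); percent inhibition vs log concentration fit to 4-parameter curve for IC50.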

[2] = biological target: JAK2 (recombinant purified GST-tagged catalytic domain) (Homo sapiens (Human), UniProt O60674); assay: Jak Biochemical HTRF Assay (JAK2); conditions: [ATP] 8.5 μM
JAK2 (recombinant purified GST-tagged catalytic domain), sequence (O60674 849-1124): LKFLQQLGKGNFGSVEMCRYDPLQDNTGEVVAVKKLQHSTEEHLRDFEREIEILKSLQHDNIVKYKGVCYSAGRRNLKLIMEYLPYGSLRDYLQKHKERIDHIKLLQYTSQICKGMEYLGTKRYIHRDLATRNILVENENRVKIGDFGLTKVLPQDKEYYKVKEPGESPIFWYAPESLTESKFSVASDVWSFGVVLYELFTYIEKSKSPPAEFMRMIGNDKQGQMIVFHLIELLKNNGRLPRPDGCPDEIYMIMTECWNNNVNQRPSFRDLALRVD

JAK1 (recombinant purified GST-tagged catalytic domain), sequence (P23458 875-1153): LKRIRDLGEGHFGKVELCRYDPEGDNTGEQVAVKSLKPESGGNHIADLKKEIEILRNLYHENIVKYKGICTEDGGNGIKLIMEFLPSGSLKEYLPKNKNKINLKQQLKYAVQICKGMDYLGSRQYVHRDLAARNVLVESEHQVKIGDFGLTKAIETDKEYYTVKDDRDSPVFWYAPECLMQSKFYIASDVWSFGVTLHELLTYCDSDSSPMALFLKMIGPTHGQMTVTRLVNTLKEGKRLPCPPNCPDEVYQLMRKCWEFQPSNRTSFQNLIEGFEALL

| Compound | pIC50 [1] | pIC50 [2] |
| --- | --- | --- |
| N#CC[C@]1(n2nc(Nc3ccc(C(N)C(F)(F)F)cc3)c3c(=O)[nH]ccc32)CCCC[C@H]1F (single isomer, unassigned) [Example 5-177, {(1R,2R)-1-[3-({4-[(1S or 1R)-1-amino-2,2,2-trifluoroethyl]phenyl}amino)-4-oxo-4,5-dihydro-1H-pyrazolo[4,3-c]pyridin-1-yl]-2-fluorocyclohexyl} acetonitrile] | 10.05 | 9.80 |
| CC(C)(C)OC(=O)N1CCC(CC#N)(n2nc(NCC3CC3)c3c(=O)[nH]ccc32)CC1 [Example 2-2, tert-butyl 4-(cyanomethyl)-4-{3-[(cyclopropylmethyl)amino]-4-oxo-4,5-dihydro-1H-pyrazolo[4,3-c]pyridin-1-yl}piperidine-1-carboxylate] | 7.30 | 7.40 |
| COC(=O)[C@@H]1CC[C@@](CC#N)(n2nc(Nc3ccc(S(C)(=O)=O)cc3)c3c(=O)[nH]ccc32)CO1 (single isomer, unassigned) [Example 5-33, (2S,5S or 2R,5R)-methyl 5-(cyanomethyl)-5-(3-((4-(methylsulfonyl)phenyl)amino)-4-oxo-4,5-dihydro-1H-pyrazolo[4,3-c]pyridin-1-yl)tetrahydro-2H-pyran-2-carboxylate] | 10.52 | 9.64 |
| N#CC[C@@]1(n2nc(Nc3ccc(C(N)C(F)(F)F)cc3)c3c(=O)[nH]ccc32)CCCOC1 (single isomer, unassigned) [Example 5-188, {(3S)-3-[3-({4-[(1S or 1R)-1-amino-2,2,2-trifluoroethyl]phenyl}amino)-4-oxo-4,5-dihydro-1H-pyrazolo[4,3-c]pyridin-1-yl]tetrahydro-2H-pyran-3-yl}acetonitrile] | 9.96 | 9.47 |

Further lines, results first:

| pIC50 [1] | pIC50 [2] | Compound |
| --- | --- | --- |
| 9.85 | 9.44 | CSC(C)C(=O)N1CCC(CC#N)(n2nc(Nc3ccc(S(=O)(=O)N(C)C)cc3)c3c(=O)[nH]ccc32)CC1 (stereo not drawn) [Example 9-24, 4-((1-(4-(cyanomethyl)-1-(2-(methylthio)propanoyl)piperidin-4-yl)-4-oxo-4,5-dihydro-1H-pyrazolo[4,3-c]pyridin-3-yl)amino)-N,N-dimethylbenzenesulfonamide] |
| 9.38 | 9.18 | N#CC[C@@]1(n2nc(Nc3ccc(S(=O)(=O)C4CCCCC4)cc3)c3c(=O)[nH]ccc32)CCCOC1 [Example 5-193, [(3S)-3-(3-{[4-(cyclohexylsulfonyl)phenyl]amino}-4-oxo-4,5-dihydro-1H-pyrazolo[4,3-c]pyridin-1-yl)tetrahydro-2H-pyran-3-yl]acetonitrile] |
| 9.89 | 9.80 | CC(C)NC(c1ccc(Nc2nn([C@]3(CC#N)CCCOC3)c3cc[nH]c(=O)c23)cc1)C(F)(F)F (single isomer, unassigned) [Example 5-206, [(3S)-3-{4-oxo-3-[(4-{(1S or 1R)-2,2,2-trifluoro-1-[(1-methylethyl)amino]ethyl}phenyl)amino]-4,5-dihydro-1H-pyrazolo [4,3-c]pyridin-1-yl}tetrahydro-2H-pyran-3-yl]acetonitrile] |
| 9.11 | 9.19 | CC(C)(C)OC(=O)N1CCC(CC#N)(n2nc(Nc3ccc4c(c3)CN(C3CCN(CC(F)(F)F)CC3)S4(=O)=O)c3c(=O)[nH]ccc32)CC1 [Example 21-15, tert-butyl-4-(cyanomethyl)-4-(3-((1,1-dioxido-2-(1-(2,2,2-trifluoroethyl)piperidin-4-yl)-2,3-dihydrobenzo[d]isothiazol-5-yl)amino)-4-oxo-4,5-dihydro-1H-pyrazolo[4,3-c]pyridin-1-yl)piperidine-1-carboxylate] |
| 9.82 | 8.64 | CN(C)c1ccc2cc(Nc3nn([C@]4(CC#N)CCCOC4)c4cc[nH]c(=O)c34)ccc2n1 [Example 5-225, (S)-2-(3-(3-((2-(dimethylamino)quinolin-6-yl)amino)-4-oxo-4,5-dihydro-1H-pyrazolo[4,3-c]pyridin-1-yl)tetrahydro-2H-pyran-3-yl)acetonitrile] |
